Reference: ChEMBL document CHEMBL1201862, “PubChem BioAssay data set” (2004)
Activity calls are given as the source filed them.

What was measured:
[1] = molecular target: Sphingosine 1-phosphate receptor 2 (Homo sapiens, UniProt O95136); test: Dose Response Cell Based Assay for Antagonists of the S1P2 Receptor. [Related pubchem assays: 856, 736 ]; format: functional
[2] = molecular target: T1, Sphingosine 1-phosphate receptor 4 (Homo sapiens, UniProt O95977); test: Late stage fluorescence dose response cell-based screening assay for antagonists of the Sphingosine 1-Phosphate Receptor 4 (S1P4). [Related pubchem assays: 1524 (Confirmation screen (S1P4 antagonists).), 1510 (Primary screen (S1P4 antagonists).), 1853 (Summary AID (S1P4 antagonists).), 1692 (Dose response screen (S1P4 antagonists).)]; format: functional
T1 sequence (O95977 whole entry): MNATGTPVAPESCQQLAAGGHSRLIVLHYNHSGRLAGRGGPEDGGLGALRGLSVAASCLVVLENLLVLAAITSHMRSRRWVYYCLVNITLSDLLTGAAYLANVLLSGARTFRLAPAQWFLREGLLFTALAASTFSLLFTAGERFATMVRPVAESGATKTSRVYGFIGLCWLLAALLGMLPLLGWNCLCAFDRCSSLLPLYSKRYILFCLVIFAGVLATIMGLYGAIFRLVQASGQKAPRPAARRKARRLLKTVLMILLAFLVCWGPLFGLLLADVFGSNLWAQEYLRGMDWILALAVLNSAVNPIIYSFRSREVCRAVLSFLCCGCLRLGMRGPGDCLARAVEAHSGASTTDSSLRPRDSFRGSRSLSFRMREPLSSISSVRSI

[3] = molecular target: T1, Sphingosine 1-phosphate receptor 4; test: Fluorescence dose response cell-based high throughput screening assay for antagonists of the Sphingosine 1-Phosphate Receptor 4 (S1P4). [Related pubchem assays: 1524 (Confirmation in triplicates.), 1510 (Primary screen.)]; format: functional
[4] = molecular target: Sphingosine 1-phosphate receptor 1 (Homo sapiens, UniProt P21453); format: functional;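 also: Tango beta-arrestin reporter U2OS cells stimulated with S1P near its EC80; inhibitor potency meaning antagonism of receptor activation by the natural agonist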
Chain of Sphingosine 1-phosphate receptor 1 (P21453 whole entry): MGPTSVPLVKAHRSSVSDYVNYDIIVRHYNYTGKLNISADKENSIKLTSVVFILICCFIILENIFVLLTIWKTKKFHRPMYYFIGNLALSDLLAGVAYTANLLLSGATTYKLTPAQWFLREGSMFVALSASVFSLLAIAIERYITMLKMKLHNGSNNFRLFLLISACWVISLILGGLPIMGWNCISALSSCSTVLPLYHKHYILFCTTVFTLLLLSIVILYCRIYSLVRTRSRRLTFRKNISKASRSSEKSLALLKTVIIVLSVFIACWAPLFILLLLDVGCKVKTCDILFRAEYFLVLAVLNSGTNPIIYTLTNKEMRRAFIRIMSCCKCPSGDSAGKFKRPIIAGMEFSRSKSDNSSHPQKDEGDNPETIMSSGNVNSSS

[5] = molecular target: T2, Replicative DNA helicase DnaB (Mycobacterium tuberculosis, UniProt P9WMR3); test: DnaB intein splicing inhibitors, dose response, biochemical, cell-free fluorescence (AID 449749); format: functional
T2 sequence (P9WMR3 whole entry): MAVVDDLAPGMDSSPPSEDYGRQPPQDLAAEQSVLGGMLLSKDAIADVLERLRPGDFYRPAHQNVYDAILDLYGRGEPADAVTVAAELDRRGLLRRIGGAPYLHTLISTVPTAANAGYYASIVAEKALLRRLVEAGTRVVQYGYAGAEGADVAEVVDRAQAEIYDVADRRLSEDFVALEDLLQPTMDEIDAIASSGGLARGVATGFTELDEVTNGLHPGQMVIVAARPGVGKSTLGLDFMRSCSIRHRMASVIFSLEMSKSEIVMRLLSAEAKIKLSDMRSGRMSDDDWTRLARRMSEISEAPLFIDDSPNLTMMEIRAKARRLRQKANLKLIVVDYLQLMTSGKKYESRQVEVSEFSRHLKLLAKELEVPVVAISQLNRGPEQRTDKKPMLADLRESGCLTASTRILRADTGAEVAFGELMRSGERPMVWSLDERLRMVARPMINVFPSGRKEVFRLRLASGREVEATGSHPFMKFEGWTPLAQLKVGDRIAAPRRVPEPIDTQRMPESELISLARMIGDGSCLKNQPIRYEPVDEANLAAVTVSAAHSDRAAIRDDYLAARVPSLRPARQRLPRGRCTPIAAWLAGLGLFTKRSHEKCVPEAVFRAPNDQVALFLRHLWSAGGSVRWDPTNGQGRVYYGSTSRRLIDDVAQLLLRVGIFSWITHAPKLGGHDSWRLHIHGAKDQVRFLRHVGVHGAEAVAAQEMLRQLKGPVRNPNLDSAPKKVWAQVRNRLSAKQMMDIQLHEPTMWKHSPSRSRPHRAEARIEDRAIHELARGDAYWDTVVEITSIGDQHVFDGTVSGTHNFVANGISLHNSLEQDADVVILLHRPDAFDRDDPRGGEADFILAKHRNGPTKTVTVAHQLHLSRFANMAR

Protein RecA = molecular target: T3, Protein RecA (Mycobacterium tuberculosis, UniProt P9WHJ3); test: Fluorescence Cell-Free Homogeneous Dose Retest to Identify Inhibitors of RecA-Intein Splicing Activity. [Related pubchem assays (depositor defined):AID2097, AID2223, AID489010, AID492950]; format: functional
T3 sequence (P9WHJ3 whole entry): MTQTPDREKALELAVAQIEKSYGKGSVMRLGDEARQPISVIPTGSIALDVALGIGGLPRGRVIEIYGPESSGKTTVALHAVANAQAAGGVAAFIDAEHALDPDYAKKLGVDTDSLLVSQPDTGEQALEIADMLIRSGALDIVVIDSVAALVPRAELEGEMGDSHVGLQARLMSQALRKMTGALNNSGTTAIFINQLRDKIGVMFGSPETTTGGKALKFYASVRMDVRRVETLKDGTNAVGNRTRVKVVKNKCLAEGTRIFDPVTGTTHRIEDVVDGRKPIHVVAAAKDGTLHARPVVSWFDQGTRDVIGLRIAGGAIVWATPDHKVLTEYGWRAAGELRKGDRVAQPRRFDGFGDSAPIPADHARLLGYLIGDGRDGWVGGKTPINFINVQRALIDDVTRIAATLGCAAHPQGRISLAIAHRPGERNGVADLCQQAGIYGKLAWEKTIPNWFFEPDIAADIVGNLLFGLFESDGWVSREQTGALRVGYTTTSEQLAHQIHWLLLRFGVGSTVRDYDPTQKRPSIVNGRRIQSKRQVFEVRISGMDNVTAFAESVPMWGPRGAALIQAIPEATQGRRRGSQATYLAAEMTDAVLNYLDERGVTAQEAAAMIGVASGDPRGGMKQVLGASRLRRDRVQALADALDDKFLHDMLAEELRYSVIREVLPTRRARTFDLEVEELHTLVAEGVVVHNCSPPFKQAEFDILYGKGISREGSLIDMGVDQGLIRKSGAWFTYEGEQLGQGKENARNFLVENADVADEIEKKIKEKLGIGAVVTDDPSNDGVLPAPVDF

[6] = molecular target: Photoreceptor-specific nuclear receptor (Homo sapiens, UniProt Q9Y5X4); format: functional, cell-based;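 also: CHO-S cells with Gal4-NCOR and VP16-NR2E3 two-hybrid luciferase reporter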
Chain of Photoreceptor-specific nuclear receptor (Q9Y5X4 whole entry, the tested form may be a part): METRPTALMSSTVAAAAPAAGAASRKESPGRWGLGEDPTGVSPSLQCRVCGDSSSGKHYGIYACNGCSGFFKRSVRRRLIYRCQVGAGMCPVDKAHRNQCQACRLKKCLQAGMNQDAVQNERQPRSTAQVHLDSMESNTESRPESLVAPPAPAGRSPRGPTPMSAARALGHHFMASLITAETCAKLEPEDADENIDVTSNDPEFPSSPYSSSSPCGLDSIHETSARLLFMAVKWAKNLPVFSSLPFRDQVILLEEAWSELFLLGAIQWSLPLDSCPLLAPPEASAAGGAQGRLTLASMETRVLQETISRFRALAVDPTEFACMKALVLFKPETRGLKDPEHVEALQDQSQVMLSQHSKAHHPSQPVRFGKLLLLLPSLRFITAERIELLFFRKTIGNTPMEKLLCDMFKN

[7] = inhibitors of PGC1a acetylation in cells, dose response, cell-based, cherry-picked samples (AID 720514); format: functional;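 also: potency may reflect raised or lowered acetylation signal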
HeLa = test: Cytotoxicity counterscreen assay for transcriptional activators of heat shock protein 70 (Hsp70). [Related pubchem assays: 1203, 1252 ]; format: functional; conditions: Homo sapiens;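 also: cells exposed to compound for 16 hours before readout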
[8] = molecular target: Induced myeloid leukemia cell differentiation protein Mcl-1 (Homo sapiens, UniProt Q07820); format: functional
Chain of Induced myeloid leukemia cell differentiation protein Mcl-1 (Q07820 whole entry): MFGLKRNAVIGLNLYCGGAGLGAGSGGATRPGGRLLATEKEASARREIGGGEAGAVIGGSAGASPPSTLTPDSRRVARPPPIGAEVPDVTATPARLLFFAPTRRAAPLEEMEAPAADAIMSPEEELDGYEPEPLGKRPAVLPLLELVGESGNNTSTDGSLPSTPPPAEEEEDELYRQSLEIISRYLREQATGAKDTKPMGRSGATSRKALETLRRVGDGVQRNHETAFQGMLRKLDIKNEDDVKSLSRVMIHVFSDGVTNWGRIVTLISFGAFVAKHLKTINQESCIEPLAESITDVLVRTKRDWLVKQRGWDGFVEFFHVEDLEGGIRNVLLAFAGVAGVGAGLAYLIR

[9] = inhibitors of Bluetongue virus cytopathic effect, confirmation, arbovirus, BSR cells (AID 1250); format: functional;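 also: protection from viral cytopathic effect measured as cell viability by ATP luminescence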
[10] = molecular target: T4, Corticotropin-releasing factor receptor 2/Corticotropin-releasing factor-binding protein (Homo sapiens, UniProt P24387+Q13324); test: Dose Response confirmation of uHTS hits for small molecule antagonists of the CRF-binding protein and CRF-R2 receptor complex.; format: functional; conditions: read-out: IC50_Mean
T4 sequence (Q13324 whole entry): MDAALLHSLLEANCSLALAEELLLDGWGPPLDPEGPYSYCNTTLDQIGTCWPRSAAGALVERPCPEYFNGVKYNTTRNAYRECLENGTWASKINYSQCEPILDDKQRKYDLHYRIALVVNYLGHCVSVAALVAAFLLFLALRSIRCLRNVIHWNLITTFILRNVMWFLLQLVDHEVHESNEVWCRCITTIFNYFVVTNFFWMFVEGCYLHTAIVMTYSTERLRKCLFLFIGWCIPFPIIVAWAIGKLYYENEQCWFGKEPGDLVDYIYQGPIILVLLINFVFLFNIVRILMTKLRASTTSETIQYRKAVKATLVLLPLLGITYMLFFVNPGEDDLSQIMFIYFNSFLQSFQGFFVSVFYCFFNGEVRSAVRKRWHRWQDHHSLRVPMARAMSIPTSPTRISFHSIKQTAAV
T4 sequence (P24387 whole entry): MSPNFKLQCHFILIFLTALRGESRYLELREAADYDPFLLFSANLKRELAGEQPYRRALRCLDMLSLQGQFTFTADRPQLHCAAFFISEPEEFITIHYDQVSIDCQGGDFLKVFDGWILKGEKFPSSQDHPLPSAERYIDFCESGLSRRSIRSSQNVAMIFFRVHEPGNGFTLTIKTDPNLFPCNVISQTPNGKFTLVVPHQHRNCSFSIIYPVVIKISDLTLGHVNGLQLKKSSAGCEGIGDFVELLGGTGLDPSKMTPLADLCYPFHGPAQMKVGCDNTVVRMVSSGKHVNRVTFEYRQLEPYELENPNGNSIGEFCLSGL

[11] = molecular target: T4, Corticotropin-releasing factor receptor 2/Corticotropin-releasing factor-binding protein; test: activators of CRF receptor 2 with binding protein – uHTS hits, confirmation (AID 602473); format: functional; conditions: read-out: EC50_Mean
[12] = molecular target: T5, Sentrin-specific protease 1 (Homo sapiens, UniProt Q9P0U3); test: potency of human SENP1 inhibitors, dose response, biochemical, kinetic FRET (AID 651697); format: functional; conditions: read-out: IC50_Mean
T5 sequence (Q9P0U3 whole entry): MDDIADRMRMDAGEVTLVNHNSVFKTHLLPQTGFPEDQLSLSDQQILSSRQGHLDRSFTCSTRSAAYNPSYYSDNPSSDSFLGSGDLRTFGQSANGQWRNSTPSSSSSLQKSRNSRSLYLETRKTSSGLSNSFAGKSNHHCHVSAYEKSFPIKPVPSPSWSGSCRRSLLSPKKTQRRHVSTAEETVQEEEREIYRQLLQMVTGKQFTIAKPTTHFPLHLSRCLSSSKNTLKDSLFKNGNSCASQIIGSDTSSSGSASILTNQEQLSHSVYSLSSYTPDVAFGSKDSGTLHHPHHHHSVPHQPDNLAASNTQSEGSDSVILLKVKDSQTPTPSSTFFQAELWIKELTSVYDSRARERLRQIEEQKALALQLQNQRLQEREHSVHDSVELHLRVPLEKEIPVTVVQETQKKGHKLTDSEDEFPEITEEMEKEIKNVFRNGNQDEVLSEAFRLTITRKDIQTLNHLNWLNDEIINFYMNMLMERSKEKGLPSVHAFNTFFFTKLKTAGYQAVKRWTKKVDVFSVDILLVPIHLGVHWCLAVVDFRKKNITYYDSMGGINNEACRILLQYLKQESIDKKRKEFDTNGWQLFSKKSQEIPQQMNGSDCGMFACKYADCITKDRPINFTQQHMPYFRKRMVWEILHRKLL

[13] = molecular target: T5, Sentrin-specific protease 1; test: Dose response confirmation of small molecule inhibitors of the catalytic domain of the SUMO protease, SENP1 in a FRET assay.; format: functional; conditions: read-out: IC50_Mean

Chain of Sphingosine 1-phosphate receptor 2 (O95136 whole entry): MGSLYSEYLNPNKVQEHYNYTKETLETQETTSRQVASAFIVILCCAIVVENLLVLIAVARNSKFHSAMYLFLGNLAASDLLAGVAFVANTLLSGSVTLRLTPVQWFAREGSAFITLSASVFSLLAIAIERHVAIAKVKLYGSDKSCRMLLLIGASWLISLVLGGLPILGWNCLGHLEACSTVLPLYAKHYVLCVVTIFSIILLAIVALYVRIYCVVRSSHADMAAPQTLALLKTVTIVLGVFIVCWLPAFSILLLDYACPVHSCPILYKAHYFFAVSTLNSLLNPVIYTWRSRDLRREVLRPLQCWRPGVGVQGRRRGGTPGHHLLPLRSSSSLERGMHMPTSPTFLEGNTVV

Structure (SMILES): COc1ccc(NC(=O)/C(Cl)=C(/Cl)S(=O)(=O)Cc2ccccc2)cn1
- IC50 [1]: 1.76 µM (active)
- IC50 [2]: 5.28 µM (not active)
- IC50 [3]: 829 nM (active)
- IC50 [4]: 8.15 µM (active)
- AC50 [5]: 2.44 µM (active)
- EC50 (Protein RecA): 2.79 µM (active)
- IC50 [6]: 1.15 µM (active)
- AC50 [7]: 5.17 µM (active)

Structure (SMILES): COC(=O)Nc1ccc(S(=O)(=O)NCc2ccccn2)cc1
- CC50 (HeLa): > 99 µM (not active)
- IC50 [8]: 6.18 µM (not active)

Structure (SMILES): COc1ccccc1C1C2=C(N=c3s/c(=C/c4cccc(OCC(=O)O)c4)c(=O)n31)c1ccccc1CC2 (stereo unspecified)
- IC50 [9]: 21.3 µM (active)
- IC50 [8]: 2.51 µM (active)
- IC50 [10]: > 47.1 µM (inactive)
- EC50 [11]: > 53 µM (inactive)
- IC50 [12]: 18.9 µM (active)
- IC50 [13]: 25.4 µM (inactive)
